Laboratory results as given in article PMC8498988, “Scaffold Hybridization Strategy Leads to the Discovery of Dopamine D3 Receptor-Selective or Multitarget Bitopic Ligands Potentially Useful for Central Nervous System Disorders” (ACS Chemical Neuroscience, 2021).

Legend:
D2R = D2R (Homo sapiens, UniProt P14416); assay: D2 mitogenesis functional assay (CHOp-D2 cells); type: cell-based; parameters: expressed in transfected cells; host or cells: CHOp-D2 cells; conditions: for IC50 / % inhib., D2 mitogenesis assay: antagonist mode; for IC50: inhibition of quinpirole stimulation of mitogenesis; for % inhib., D2 mitogenesis assay: standard antagonist (+)-butaclamol; for functional behavior at D2R: in words
Chain of D2R (P14416 whole entry): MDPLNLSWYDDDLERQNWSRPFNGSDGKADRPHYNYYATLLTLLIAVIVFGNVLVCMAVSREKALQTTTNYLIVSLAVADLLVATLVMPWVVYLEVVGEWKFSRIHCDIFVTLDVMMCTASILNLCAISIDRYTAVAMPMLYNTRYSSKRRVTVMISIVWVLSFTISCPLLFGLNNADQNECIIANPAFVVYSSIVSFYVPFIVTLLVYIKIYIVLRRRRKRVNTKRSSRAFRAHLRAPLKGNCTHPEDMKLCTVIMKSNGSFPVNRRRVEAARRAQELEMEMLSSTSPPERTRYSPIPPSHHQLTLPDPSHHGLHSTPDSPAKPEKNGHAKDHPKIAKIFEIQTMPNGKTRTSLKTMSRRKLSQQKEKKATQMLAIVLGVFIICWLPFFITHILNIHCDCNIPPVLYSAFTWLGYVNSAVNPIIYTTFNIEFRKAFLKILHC
Procedure: CHOp-D2 and CHOp-D3 cells are maintained in α-MEM with 10% fetal bovine serum (FBS, Atlas Biologicals), 0.05% pen-strep, and 400 μg/mL of G418. […] The cells are incubated at 37 °C in α-MEM with 10% FBS. After 48–72 h, the cells are rinsed twice with serum-free α-MEM and incubated for 24 h at 37 °C. Serial dilutions of test compounds are made by the Biomek robotics system in serum-free α-MEM. In the functional assay for agonists, the medium is removed and replaced with 100 μL of test compound in serum-free α-MEM. In the antagonist assay, the serial dilution of the putative antagonist test compound is added in 90 μL (1.1× of final concentration) and 300 nM quinpirole (30 nM final) is added in 10 μL. After another 24 h (D2) or 16 h (D3) incubation at 37 °C, 0.25 μCi of [^3H]thymidine in αMEM supplemented with 10% FBS is added to each well, and the plates are further incubated for 2 h at 37 °C. The cells are trypsinized by addition of 10× trypsin solution (1% trypsin in calcium–magnesium-free phosphate-buffered saline), and the plates are filtered and counted as usual. Quinpirole is run each day as an internal control, and dopamine is included for comparative purposes.

D3R = D3R (Homo sapiens, UniProt P35462); assay: Radioligand competition binding at human D3R ([3H]N-methylspiperone, HEK293 membranes); parameters: expressed in transfected cells; host or cells: HEK293; conditions: for Ki: [3H]N-methylspiperone, HEK 293 cells expressing hD3R, read-out: Ki ± SEM, D3R; for D2/D3: ratio of Ki values D2R/D3R; for D4/D3: ratio of Ki values D4R/D3R
Chain of D3R (P35462 whole entry): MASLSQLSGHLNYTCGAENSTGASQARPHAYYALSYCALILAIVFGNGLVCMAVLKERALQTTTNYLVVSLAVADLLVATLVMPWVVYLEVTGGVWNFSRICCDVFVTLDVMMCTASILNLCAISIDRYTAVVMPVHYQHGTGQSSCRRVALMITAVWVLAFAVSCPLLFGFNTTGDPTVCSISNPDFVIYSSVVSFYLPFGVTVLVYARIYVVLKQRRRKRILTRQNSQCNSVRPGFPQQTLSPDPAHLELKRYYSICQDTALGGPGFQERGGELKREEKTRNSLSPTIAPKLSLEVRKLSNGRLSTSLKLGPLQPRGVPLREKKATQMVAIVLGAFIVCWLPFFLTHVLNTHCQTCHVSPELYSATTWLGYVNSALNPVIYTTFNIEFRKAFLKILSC
Procedure: The novel hybrid derivatives 3–11 were tested at hD2R, hD3R, or hD4R stably expressed in HEK293 cells by competition binding assays, using [^3H]N-methylspiperone as the radioligand, to evaluate their D2-like affinity and subtype selectivity, following the previously reported procedures.[41],[45],[46]
Binding at dopamine D2-like receptors was determined using previously described methods.[41],[45],[46] Membranes were prepared from HEK293 cells stably expressing human D2, D3, or D4, grown in a 50:50 mix of Dulbecco’s minimal essential medium (DMEM) and Ham’s F12 culture media, supplemented with 20 mM HEPES, 2 mM L-glutamine, 0.1 mM nonessential amino acids, 1× antibiotic/antimycotic, 10% heat-inactivated fetal bovine serum, and 200 μg/mL hygromycin (Life Technologies, Grand Island, NY) and kept in an incubator at 37 °C and 5% CO2. Upon reaching 80–90% confluency, the cells were harvested using premixed Earle’s Balanced Salt Solution (EBSS) with 5 μM EDTA (Life Technologies) and centrifuged at 3000 rpm for 10 min at 21 °C. The supernatant was removed, and the pellet was resuspended in 10 mL hypotonic lysis buffer (5 mM MgCl2, 5 mM Tris, pH 7.4 at 4 °C) and centrifuged at 20,000 rpm for 30 min at 4 °C. The pellet was then resuspended in fresh EBSS buffer made from 8.7 g/L Earle’s Balanced Salts without phenol red (US Biological, Salem, MA), 2.2 g/L sodium bicarbonate, pH to 7.4. A Bradford protein assay (Bio-Rad, Hercules, CA) was used to determine the protein concentration, and membranes were diluted to 500 μg/mL and stored at −80 °C for later use. Radioligand competition binding experiments were conducted using thawed membranes. Test compounds were freshly dissolved in 30% DMSO and 70% H2O to a stock concentration of 100 μM. To assist the solubilization of free-base compounds, 10 μL of glacial acetic acid was added along with DMSO. Each test compound was then diluted into 13 half-log serial dilutions using 30% DMSO vehicle; the final test concentrations ranged from 10 μM to 10 pM. The previously frozen membranes were diluted in fresh EBSS to a 100 μg/mL (for D2 or D3) or 200 μg/mL (D4) stock for binding. Radioligand competition experiments were conducted in glass tubes containing 300 μL of fresh EBSS buffer, 50 μL of diluted test compound, 100 μL of membranes (10 μg of total protein for D2 or D3 and 20 μg of total protein for D4), and 50 μL of [^3H]N-methylspiperone (0.4 nM final concentration; PerkinElmer). Nonspecific binding was determined using 10 μM butaclamol (Sigma-Aldrich, St. Louis, MO), and total binding was determined with the 30% DMSO vehicle. All compound dilutions were tested in triplicate and the reaction was incubated for 1 h at room temperature. The reaction was terminated by filtration through Whatman GF/B filters, presoaked for 1 h in 0.5% polyethylenimine, using a Brandel R48 filtering manifold (Brandel Instruments, Gaithersburg, MD). The filters were washed three times with 3 mL of ice-cold EBSS buffer and transferred to scintillation vials. CytoScint liquid scintillation cocktail (3 mL, MP Biomedicals, Solon, OH) was added, and vials were counted using a PerkinElmer Tri-Carb 2910 TR liquid scintillation counter (Waltham, MA).

| Structure (SMILES) | IC50 (D2R) [nM] | % inhib., D2 mitogenesis assay (D2R) | functional behavior at D2R (D2R) | Ki (D3R) [nM] | D2/D3 (D3R) | D4/D3 (D3R) |
| --- | --- | --- | --- | --- | --- | --- |
| O=C(NCCCCN1CCN(c2cccc(Cl)c2Cl)CC1)C1COC(c2ccccc2)(c2ccccc2)CO1 (stereo not drawn) [compound 6, N-(4-(4-(2,3-Dichlorophenyl)piperazin-1-yl)butyl)-5,5-diphenyl-1,4-dioxane-2-carboxamide] | 8.5 | (95.2) % | efficacious D2R and 5-HT2AR antagonists with high and low potency, respectively | 1.58 ± 0.24 | 18 | 35 |
| O=C(NCCCCN1CCN(c2cccc(Cl)c2Cl)CC1)C1COc2ccccc2O1 (stereo not drawn) [compound 9, N-(4-(4-(2,3-Dichlorophenyl)piperazin-1-yl)butyl)-2,3-dihydrobenzo[b][1,4]dioxine-2-carboxamide] | 40 | (94.4) % | efficacious D2R and 5-HT2AR antagonists with high and low potency, respectively | 2.16 ± 0.63 | 22 | 35 |
| O=C(NCCCCN1CCN(c2cccc(Cl)c2Cl)CC1)C1COCC(c2ccccc2)(c2ccccc2)O1 (stereo not drawn) [compound 3, N-(4-(4-(2,3-Dichlorophenyl)piperazin-1-yl)butyl)-6,6-diphenyl-1,4-dioxane-2-carboxamide] | 139 | (93.5) % | weak D2R antagonist | 2.39 ± 0.69 | 143 | 566 |
